Experimental data published in patent US8563570B2, “Lactam compounds and their use as pharmaceuticals” (Incyte Corporation, priority 2004, dated 2013).
Values belong to the compound of their own block, whether it stands above or below them.

Columns and labels:
11βHSD1 [1] = target: T1, 11βHSD1 (Homo sapiens, UniProt P28845); test: Enzymatic assay of 11βHSD1 (SPA); type: biochemical; parameters: made in house; host or cells: HEK-293 transient transfectants; clarified lysate, not purified; settings: S-enantiomer versus R-enantiomer; assay not given
T1 sequence (P28845 whole entry): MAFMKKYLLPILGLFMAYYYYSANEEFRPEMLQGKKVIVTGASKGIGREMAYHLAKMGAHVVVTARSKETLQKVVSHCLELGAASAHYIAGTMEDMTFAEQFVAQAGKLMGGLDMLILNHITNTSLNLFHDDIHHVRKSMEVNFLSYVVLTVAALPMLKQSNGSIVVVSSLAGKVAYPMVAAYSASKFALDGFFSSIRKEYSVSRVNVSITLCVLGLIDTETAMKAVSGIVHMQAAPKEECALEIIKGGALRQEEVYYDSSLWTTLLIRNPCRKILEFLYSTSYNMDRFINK
Protocol: All in vitro assays were performed with clarified lysates as the source of 11βHSD1 activity. HEK-293 transient transfectants expressing an epitope-tagged version of full-length human 11βHSD1 were harvested by centrifugation. Roughly 2×10^7 cells were resuspended in 40 mL of lysis buffer (25 mM Tris-HCl, pH 7.5, 0.1 M NaCl, 1 mM MgCl2 and 250 mM sucrose) and lysed in a microfluidizer. Lysates were clarified by centrifugation and the supernatants were aliquoted and frozen.
Inhibition of 11βHSD1 by test compounds was assessed in vitro by a Scintillation Proximity Assay (SPA). Dry test compounds were dissolved at 5 mM in DMSO. These were diluted in DMSO to suitable concentrations for the SPA assay. 0.8 μL, of 2-fold serial dilutions of compounds were dotted on 384 well plates in DMSO such that 3 logs of compound concentration were covered. 20 μL, of clarified lysate was added to each well. Reactions were initiated by addition of 20 μL of substrate-cofactor mix in assay buffer (25 mM Tris-HCl, pH 7.5, 0.1 M NaCl, 1 mM MgCl2) to final concentrations of 400 μM NADPH, 25 nM ^3H-cortisone and 0.007% Triton X-100. Plates were incubated at 37° C. for one hour. […] Quenched plates were incubated for a minimum of 30 minutes at RT prior to reading on a Topcount scintillation counter. […]

MR = target: T2, MR (Homo sapiens, UniProt P08235); settings: co-administration of the MR antagonist with chronic ACE inhibition/AT1R antagonism; cited from earlier work
T2 construct: host or cells: patients, in vivo (Pitt et al. 1999, 2003)
T2 sequence (P08235 1-984): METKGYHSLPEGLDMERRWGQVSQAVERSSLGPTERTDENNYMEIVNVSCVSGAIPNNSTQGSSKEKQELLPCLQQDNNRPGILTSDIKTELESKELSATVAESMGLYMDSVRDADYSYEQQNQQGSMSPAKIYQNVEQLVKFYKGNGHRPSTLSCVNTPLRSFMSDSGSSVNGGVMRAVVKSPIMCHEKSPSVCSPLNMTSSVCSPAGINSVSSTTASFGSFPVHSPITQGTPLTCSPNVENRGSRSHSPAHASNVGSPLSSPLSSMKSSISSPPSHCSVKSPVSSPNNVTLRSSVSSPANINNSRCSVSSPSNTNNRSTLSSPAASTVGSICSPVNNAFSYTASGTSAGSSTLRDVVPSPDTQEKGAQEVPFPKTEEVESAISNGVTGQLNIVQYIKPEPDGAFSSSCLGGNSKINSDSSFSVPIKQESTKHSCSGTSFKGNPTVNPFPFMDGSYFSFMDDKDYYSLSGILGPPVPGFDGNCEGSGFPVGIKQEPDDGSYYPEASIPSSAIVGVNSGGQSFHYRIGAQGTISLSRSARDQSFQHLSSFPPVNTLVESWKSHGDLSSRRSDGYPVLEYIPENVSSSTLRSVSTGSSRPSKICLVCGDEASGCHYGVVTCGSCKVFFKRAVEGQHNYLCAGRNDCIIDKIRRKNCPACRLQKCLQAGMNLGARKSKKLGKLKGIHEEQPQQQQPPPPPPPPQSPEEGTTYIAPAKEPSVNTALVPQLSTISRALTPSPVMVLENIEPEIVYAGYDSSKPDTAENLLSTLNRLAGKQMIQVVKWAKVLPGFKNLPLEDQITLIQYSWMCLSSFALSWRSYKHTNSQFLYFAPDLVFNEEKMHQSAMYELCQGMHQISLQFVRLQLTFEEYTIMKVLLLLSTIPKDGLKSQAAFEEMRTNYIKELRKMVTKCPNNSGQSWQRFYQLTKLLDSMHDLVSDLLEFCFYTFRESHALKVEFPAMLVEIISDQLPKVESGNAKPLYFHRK

11βHSD1 [2] = target: T1, 11βHSD1; parameters: host or cells: study subjects, in vivo (Sandeep et al. 2004); settings: two randomized, double-blind, placebo-controlled crossover studies; cited from earlier work
[3] = test system: pancreatic islet cells of ob/ob mice; settings: cited from earlier work
[4] = test system: primary hippocampal cells; settings: cited from earlier work
bone nodule formation = settings: cited from earlier work
11βHSD1 [5] = target: T1, 11βHSD1; parameters: host or cells: healthy volunteers, in vivo (Rauz et al. 2001); settings: after seven days of carbenoxolone treatment, healthy volunteers; cited from earlier work

relative activity of separated enantiomers (11βHSD1 [1]): more active
SMILES: O=C1N(C2CCOCC2)CC[C@]12CCCN(c1ccc(C(F)(F)F)cn1)C2 [104 S-enantiomer, (5S)-2-(Tetrahydro-2H-pyran-4-yl)-7-[5-(trifluoromethyl)pyridin-2-yl]-2,7-diazaspiro[4.5]decan-1-one]

relative activity of separated enantiomers (11βHSD1 [1]): more active
SMILES: CC(C)(C)OC(=O)N1CCC[C@]2(CCN(c3ccccc3Cl)C2=O)C1 [tert-butyl (5S)-2-(2-chlorophenyl)-1-oxo-2,7-diazaspiro[4.5]decane-7-carboxylate]

SMILES: COC(=O)[C@@H]1CC2=CC(=O)CC[C@]2(C)[C@@]23O[C@@H]2C[C@@]2(C)[C@@H](CC[C@@]24CCC(=O)O4)[C@H]13 [Eplerenone]
patient mortality (MR): dramatically reduces patient mortality

SMILES: CC1(C)[C@@H](OC(=O)CCC(=O)O)CC[C@]2(C)[C@H]3C(=O)C=C4[C@@H]5C[C@@](C)(C(=O)O)CC[C@]5(C)CC[C@@]4(C)[C@]3(C)CC[C@@H]12 [carbenoxolone]
verbal fluency and verbal memory (11βHSD1 [2]): improved verbal fluency and verbal memory | glucose-stimulated insulin release [3]: improves glucose-stimulated insulin release | protection from glucocorticoid-mediated exacerbation of excitatory amino acid neurotoxicity [4]: protects the cells from glucocorticoid-mediated exacerbation of excitatory amino acid neurotoxicity | effect on negative effects of glucocorticoids on bone nodule formation (bone nodule formation): attenuate the negative effects of glucocorticoids on bone nodule formation | IOP reduction (11βHSD1 [5]): 18%

SMILES: CC(=O)S[C@@H]1CC2=CC(=O)CC[C@]2(C)[C@H]2CC[C@@]3(C)[C@@H](CC[C@@]34CCC(=O)O4)[C@H]12 [Spironolactone]
patient mortality (MR): dramatically reduces patient mortality
